According to ChEMBL document CHEMBL1201862, “PubChem BioAssay data set” (2004):
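Five compound concentrations were applied to cells in 96-well plates for 48 hours; endpoints were derived by simple linear interpolation of the resulting dose-response curve. At the GI50, growth is halved.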 Calls of active or inactive are those of the source. Cut-off read from the data, not from the text of the source: active = GI50 up to about 1.1 µM and inactive = higher.

What was measured:
Test in all cases: NCI-60 cell line screen, 48 h
SW-620 = tested on: SW-620
SN12C = tested on: SN12C
M14 = tested on: M14
ACHN = tested on: ACHN
UO-31 = tested on: UO-31
OVCAR-8 = tested on: OVCAR-8
SNB-75 = tested on: SNB-75
A498 = tested on: A498
MOLT-4 = tested on: MOLT-4
HOP-62 = tested on: HOP-62
CCRF-CEM = tested on: CCRF-CEM
HCT-15 = tested on: HCT-15
NCI-H23 = tested on: NCI-H23
RPMI-8226 = tested on: RPMI-8226
NCI-H460 = tested on: NCI-H460
COLO 205 = tested on: COLO 205
LOX IMVI = tested on: LOX IMVI
HOP-92 = tested on: HOP-92
MDA-MB-231 = tested on: MDA-MB-231
HCC 2998 = tested on: HCC 2998

SMILES	GI50 (SW-620)	GI50 (SN12C)	GI50 (M14)	GI50 (ACHN)	GI50 (UO-31)	GI50 (OVCAR-8)	GI50 (SNB-75)	GI50 (A498)	GI50 (MOLT-4)	GI50 (HOP-62)	GI50 (CCRF-CEM)	GI50 (HCT-15) [µM]	GI50 (NCI-H23)	GI50 (RPMI-8226)	GI50 (NCI-H460)	GI50 (COLO 205)	GI50 (LOX IMVI)	GI50 (HOP-92)	GI50 (MDA-MB-231)	GI50 (HCC 2998)
CN(C)Cc1cc(C(F)(F)F)ccc1C(O)(c1ccccc1)c1ccccc1	17.3 µM (inactive)	15.4 µM (inactive)	12.4 µM (inactive)	16.3 µM (inactive)	12.1 µM (inactive)	17.9 µM (inactive)	8.55 µM (inactive)	11.7 µM (inactive)	15.7 µM (inactive)	16.3 µM (inactive)	6.92 µM (inactive)	14.7	26.2 µM (inactive)	5.51 µM (inactive)	14.6 µM (inactive)	8.05 µM (inactive)	15.8 µM (inactive)	13.6 µM (inactive)	11.9 µM (inactive)	–
CC1C(=O)N=C2C(=CN(Cc3ccccc3)c3ccccc32)C(=O)N1C (stereo not drawn)	> 100 µM (inactive)	> 100 µM (inactive)	> 100 µM (inactive)	> 100 µM (inactive)	> 100 µM (inactive)	> 100 µM (inactive)	> 100 µM (inactive)	> 100 µM (inactive)	–	–	> 100 µM (inactive)	> 100	> 100 µM (inactive)	> 100 µM (inactive)	> 100 µM (inactive)	> 100 µM (inactive)	–	> 100 µM (inactive)	> 100 µM (inactive)	> 100 µM (inactive)
CC[N+](C)(CC)CCN1C(=O)c2ccccc2S1(=O)=O	> 100 µM (inactive)	> 100 µM (inactive)	> 100 µM (inactive)	> 100 µM (inactive)	> 100 µM (inactive)	> 100 µM (inactive)	> 100 µM (inactive)	> 100 µM (inactive)	39.8 µM (inactive)	> 100 µM (inactive)	> 100 µM (inactive)	> 100	> 100 µM (inactive)	> 100 µM (inactive)	> 100 µM (inactive)	> 100 µM (inactive)	> 100 µM (inactive)	> 100 µM (inactive)	> 100 µM (inactive)	–
CC(C)(Cl)C(Br)CC/C(=C/CBr)CBr.CC(C)(Cl)C(Br)CC/C(=C\CBr)CBr (stereo not drawn)	2.3 µM (inactive)	2.49 µM (inactive)	2 µM (inactive)	3.88 µM (inactive)	1.62 µM (inactive)	3.01 µM (inactive)	2.48 µM (inactive)	8.63 µM (inactive)	1.14 µM (inactive)	5.93 µM (inactive)	0.959 µM (active)	1.95	2.83 µM (inactive)	1.11 µM (active)	3.61 µM (inactive)	2.32 µM (inactive)	–	2.03 µM (inactive)	1.89 µM (inactive)	5.82 µM (inactive)
Cc1ccc(S(=O)(=O)N/N=C2\CCCCCCCCCCC2CN(C)C)cc1 (stereo not drawn)	17.9 µM (inactive)	20.6 µM (inactive)	17.1 µM (inactive)	20.1 µM (inactive)	9.04 µM (inactive)	16.8 µM (inactive)	–	17.7 µM (inactive)	26.7 µM (inactive)	17.6 µM (inactive)	15.7 µM (inactive)	15	23 µM (inactive)	38.7 µM (inactive)	12.4 µM (inactive)	17.4 µM (inactive)	17.1 µM (inactive)	10.3 µM (inactive)	18.9 µM (inactive)	8.43 µM (inactive)
